Data from patent US4272540A, “14-Methoxymorphinan-6-one compounds and therapeutic methods of treating pain and drug dependence with them” (SISA, Incorporated, priority 1979, dated 1981).
Where a name gives a salt, the structure may show the parent alone. Read-outs that look alike come from different tables or passages of the source.

Assays:
[1] = tested on: mice; assay: Test A: acetic acid mouse writhing test (analgesic effects); assay type: in vivo, male CD-1 mice; conditions: for ED50: Mus musculus, sc
Experimental: (A) Analgesic effects upon mice (acetic acid writhing test).
(§1) The analgesic effects of test compounds were determined in mice by use of the acetic acid writhing test described by B. J. R. Whittle, Brit. J. Pharmacol., 22:296 (1964). In this test at least three groups of five male CD-1 mice each were given subcutaneous doses of the test drug dissolved in either distilled water or distilled water acidified with HCl depending on the solubility of the compound. In all cases, 0.4 milliliter of a 0.5% V/V acetic acid in distilled water solution was administered intraperitoneally 15 minutes post drug. The number of writhes in a 20 minute interval beginning 5 minutes after the acetic acid injection were determined and compared with the number of writes in control groups which had received only acetic acid.
Percent inhibition of writhing was calculated as: [formula]
(§2) The ED50 dose, i.e., the dose required to reduce the number of writhes by 50%, was determined graphically from a plot of % inhibition as a probit versus log dose. Confidence limits of 95% were calculated on the basis of those results falling in the range 16-84% inhibition. See Litchfield, J. T. and Wilcoxon, F., J. Pharmacol. Exp. Ther., 96, 99-113, (1949).
(§3) The results of these experiments are set out in Table I where R, R1 and R2 refer to the proceeding general formula for the compounds of the present invention. In the column under R2 CBM stands for cyclobutylmethyl, CPM for cyclopropylmethyl, THF for tetrahydrofurfuryl and DMA for dimethylallyl.

[2] = tested on: rats; assay: Test B: narcotic antagonist activity (modified rat tail flick test, morphine antagonism); assay type: in vivo, male albino Wistar rats; set-up: key to AD50 (Test B): inactive at dose stated: IA is intended to mean "inactive"; conditions: for AD50 (Test B): inactive at dose stated: at 10 mg/kg, interperitoneally; for ED50: Rattus norvegicus
Experimental: (B) Narcotic antagonist activity in rats (modified rat tail flick test).
The narcotic antagonist effects of test compounds were determined by a modification of the rat tail flick procedure of Harris and Pierson (J. Pharmacol. Exp. Ther. 143:141[1964]).
(§4) Male albino Wistar rats (100-120 g) were used for this study. A rat's tail is so placed so as to cover a photocell. Heat is applied by a lamp in a reflector with a timer being connected to the lamp and photocell so that the timer goes on when the light is turned on and is turned off when the photocell is uncovered. A rheostat, incorporated into a heating lamp is used to adjust the intensity of the light falling on the tail of the rat such that the rat's control reaction time is from two to four seconds. Animals with a control reaction time outside this range are rejected. The rheostat adjustment is made only if a significant proportion (more than 2 out of every 10 rats) of the reaction times are outside the range of two to four seconds. Groups of five rats were used each time, and two control times were determined at 60 and 30 minutes prior to subcutaneous injection of the drug.
(§5) Thirty minutes after the last control run the test drug was given interperitoneally. This was followed ten minutes later by an ED80 dose of morphine subcutaneously. The animals were retested at 20 minutes after the morphine injection. Control animals were given vehicle and morphine only. The data were calculated as follows: [formula]
(§6) The data were plotted on log-probit paper and AD50 values, i.e., the dose required to inhibit the morphine effect by 50% within 95% condidence limits, were determined by the method of Litchfield and Wilcoxon.
as §3

[3] = Overall agonist/antagonist classification from Table I (Tests A and B); assay type: in vivo, mice (Test A); rats (Test B); conditions: from ED50 and AD50 values of Table I
Experimental: as §1, §2, §4, §5, §6

[4] = prior art report; cited from earlier work
[5] = subcutaneous, 15 min before acetic acid, dose reducing writhes by 50%, read-out: ED50 (Test A, acetic acid mouse writhing test)
[6] = rats, tail flick, drug interperitoneally 10 min before ED80 morphine s.c., dose inhibiting morphine effect by 50%
[7] = sc, rats, tail flick, drug interperitoneally 10 min before ED80 morphine s.c., dose inhibiting morphine effect by 50%, read-out: AD50 (Test B, narcotic antagonist activity)

Structure (SMILES): CO[C@@]12CCC(=O)C[C@@]13CCN(CC1CCCO1)[C@@H]2Cc1ccc(O)cc13 (stereo partly shown) [TR-5340, 3-Hydroxy-14-methoxy-17-tetrahydrofurfurylmorphinan-6-one]
- ED50 [1, 5]: 0.03 mg/kg
- AD50 (Test B): inactive at dose stated ([2]; rats, tail flick vs morphine): IA
- agonist/antagonist profile [3]: pure analgesics

Structure (SMILES): COc1ccc2c(c1)[C@]13CCN(CC4CC4)[C@H](C2)[C@]1(OC)CCC(=O)C3 [TR-5305, 17-Cyclopropylmethyl-3,14-dimethoxymorphinan-6-one]
- ED50 [1, 5]: 0.98 mg/kg
- AD50 (Test B, narcotic antagonist activity) [2, 6]: 1.60 mg/kg
- agonist/antagonist profile [3]: mixed analgesic (agonist) and narcotic antagonist activity

Structure (SMILES): CO[C@@]12[C@H](C)CC(=O)C[C@@]13CCN(CC=C(C)C)[C@@H]2Cc1ccc(O)cc13.Cl [TR-5310, 17-Dimethylallyl-3-hydroxy-14-methoxy-8α-methylmorphinan-6-one Hydrochloride]
- ED50 [1, 5]: 0.18 mg/kg
- AD50 (Test B): inactive at dose stated ([2]; rats, tail flick vs morphine): IA
- agonist/antagonist profile [3]: pure analgesics

Structure (SMILES): C[C@H]1[C@H]2Cc3ccc(O)cc3[C@]1(C)CCN2CC1CC1 [cyclazocine]
- analgesic / narcotic antagonist activity (literature) [4]: mixed analgesic/narcotic antagonist activity

Structure (SMILES): COc1ccc2c(c1)[C@]13CCN(CC4CCC4)[C@H](C2)[C@]1(OC)[C@H](C)CC(=O)C3.Cl [TR-5219, 17-Cyclobutylmethyl-3,14-dimethoxy-8α-methylmorphinan-6-one Hydrochloride]
- ED50 [1, 5]: 15.1 mg/kg
- ED50 ([1]; writhing, unit inferred, read-out: ED50 value): 15.1 mg/kg
- analgesic activity (in words) ([1]; writhing): only a weak analgesic
- AD50 (Test B): inactive at dose stated ([2]; rats, tail flick vs morphine): IA
- narcotic antagonist activity (in words) ([2]; rats, tail flick vs morphine): not a narcotic antagonist

Structure (SMILES): COc1ccc2c(c1)[C@]13CCN(CC4CCC4)[C@H](C2)[C@]1(OC)[C@@H](C)CC(=O)C3.Cl [TR-5211, 17-Cyclobutylmethyl-3,14-dimethoxy-8β-methylmorphinan-6-one Hydrochloride]
- ED50 (Test A): inactive at dose stated ([1]; at 10 mg/kg, subcutaneous): IA (IA is intended to mean "inactive")
- ED50 [2, 7]: 0.41 mg/kg
- agonist/antagonist profile [3]: pure narcotic antagonists

Structure (SMILES): CO[C@@]12[C@H](C)CC(=O)C[C@@]13CCN(CC1CC1)[C@@H]2Cc1ccc(O)cc13.Cl [TR-5284, 17-Cyclopropylmethyl-3-hydroxy-14-methoxy 8α-methylmorphinan-6-one Hydrochloride]
- ED50 (Test A): inactive at dose stated ([1]; at 10 mg/kg, subcutaneous): IA (IA is intended to mean "inactive")
- ED50 [2, 7]: < 3 mg/kg
- narcotic antagonist activity (in words) ([2]; rats, tail flick vs morphine): is a narcotic antagonist
- agonist/antagonist profile [3]: pure narcotic antagonists

Structure (SMILES): CO[C@@]12[C@@H](C)CC(=O)C[C@@]13CCN(CC1CC1)[C@@H]2Cc1ccc(O)cc13.Cl [TR-5210, 17-Cyclopropylmethyl-3-hydroxy-14-methoxy-8β-methylmorphinan-6-one Hydrochloride]
- ED50 [1, 5]: 30 mg/kg
- ED50 ([2]; rats, tail flick vs morphine, unit inferred, read-out: AD50 (the source's name)): 0.004 mg/kg
- ED50 [2, 7]: 0.004 mg/kg
- potency as narcotic antagonist relative to naloxone ([2]; naloxone as comparator): 10 times
- agonist/antagonist profile ([3]; Hydrochloride): pure narcotic antagonist

Structure (SMILES): CO[C@@]12[C@@H](C)CC(=O)C[C@@]13CCN(CC1CCC1)[C@@H]2Cc1ccc(O)cc13 [TR-5212, 17-Cyclobutylmethyl-3-hydroxy-14-methoxy-8β-methylmorphinan-6-one Hydrochloride]
- ED50 (Test A): inactive at dose stated ([1]; at 10 mg/kg, subcutaneous): IA (IA is intended to mean "inactive")
- ED50 [2, 7]: 0.18 mg/kg
- agonist/antagonist profile [3]: pure narcotic antagonists

Structure (SMILES): COc1ccc2c(c1)[C@]13CCN(CC4CCCO4)[C@H](C2)[C@]1(OC)[C@H](C)CC(=O)C3.Cl (stereo partly drawn) [TR-5327, 17-Tetrahydrofurfuryl-3,14-dimethoxy-8α-methylmorphinan-6-one Hydrochloride]
- ED50 [1, 5]: 1.85 mg/kg
- AD50 (Test B): inactive at dose stated ([2]; rats, tail flick vs morphine): IA
- agonist/antagonist profile [3]: pure analgesics

Structure (SMILES): CO[C@@]12CCC(=O)C[C@@]13CCN(CC1CC1)[C@@H]2Cc1ccc(O)cc13.Cl [TR-5325, 17-Cyclopropylmethyl-3-hydroxy-14-methoxymorphinan-6-one Hydrochloride]
- ED50 [1, 5]: 0.45 mg/kg
- ED50 [2, 7]: 0.35 mg/kg
- agonist/antagonist profile ([3]; Hydrochloride): mixed analgesic (agonist) and narcotic antagonist activity

Structure (SMILES): COc1ccc2c(c1)[C@]13CCN(CC4CC4)[C@H](C2)[C@]1(OC)[C@@H](C)CC(=O)C3.Cl [TR-5209, 17-Cyclopropylmethyl-3,14-dimethoxy-8β-methylmorphinan-6-one Hydrochloride]
- ED50 (Test A): inactive at dose stated ([1]; at 13 mg/kg, subcutaneous): IA (IA is intended to mean "inactive")
- ED50 [2, 7]: 0.45 mg/kg
- agonist/antagonist profile [3]: pure narcotic antagonists

Structure (SMILES): CO[C@@]12[C@@H](C)CC(O)C[C@@]13CCN(CC1CC1)[C@@H]2Cc1ccc(O)cc13 (stereo partly drawn) [TR-5250, 17-Cyclopropylmethyl-14-methoxy-8β-methylmorphinan-3,6-diol Hydrochloride]
- ED50 (Test A): inactive at dose stated ([1]; at 10 mg/kg, subcutaneous): IA (IA is intended to mean "inactive")
- ED50 [2, 7]: 0.32 mg/kg
- less active as narcotic antagonist than TR-5210 ([2]; rats, tail flick vs morphine, compared with TR-5210): ~2 orders of magnitude

Structure (SMILES): COc1ccc2c(c1)[C@]13CCN(CC4CCCO4)[C@H](C2)[C@]1(OC)CCC(=O)C3.Cl (stereo partly shown) [TR-5326, 3,14-Dimethoxy-17-tetrahydrofurfurylmorphinan-6-one Hydrochloride]
- ED50 [1, 5]: 0.16 mg/kg
- AD50 (Test B): inactive at dose stated ([2]; rats, tail flick vs morphine): IA
- agonist/antagonist profile [3]: pure analgesics

Structure (SMILES): COc1ccc2c(c1)[C@]13CCN(CC4CC4)[C@H](C2)[C@]1(OC)CCC(=O)C3 [TR-5400, 17-Cyclopropylmethyl-3,14-dimethoxymorphinan-6-one]
- ED50 (Test A, acetic acid mouse writhing test) ([1]; subcutaneous, 15 min before acetic acid, dose reducing writhes by 50%): 0.89 mg/kg
- AD50 (Test B, narcotic antagonist activity) [2, 6]: 0.64 mg/kg

Structure (SMILES): CO[C@@]12[C@H](C)CC(O)C[C@@]13CCN(CC1CC1)[C@@H]2Cc1ccc(O)cc13.Cl (stereo partly drawn) [TR-5285, 17-Cyclopropylmethyl-14-methoxy-8α-methylmorphinan-3,6-diol Hydrochloride]
- ED50 [1, 5]: > 10 mg/kg
- ED50 [2, 7]: > 10 mg/kg
- agonist/antagonist profile [3]: not active as an analgesic or a narcotic antagonist

Structure (SMILES): COc1ccc2c(c1)[C@]13CCN(CC4CCC4)[C@H](C2)[C@]1(OC)CCC(=O)C3 [TR-5296, 17-Cyclobutylmethyl-3,14-dimethoxymorphinan-6-one Hydrochloride]
- ED50 [1, 5]: 0.77 mg/kg
- AD50 (Test B): inactive at dose stated ([2]; rats, tail flick vs morphine): 1A
- agonist/antagonist profile [3]: pure analgesics

Structure (SMILES): CO[C@@]12CCC(=O)C[C@@]13CCN(CC1CCC1)[C@@H]2Cc1ccc(O)cc13 [TR-5306, 17-Cyclobutylmethyl-3-hydroxy-14-methoxymorphinan-6-one Hydrochloride]
- ED50 [1, 5]: 0.007 mg/kg
- AD50 (Test B): inactive at dose stated ([2]; rats, tail flick vs morphine): IA
- agonist/antagonist profile [3]: pure analgesics

Structure (SMILES): CO[C@@]12[C@H](C)CC(=O)C[C@@]13CCN(CC1CCC1)[C@@H]2Cc1ccc(O)cc13 [TR-5249, 17-Cyclobutylmethyl-3-hydroxy-14-methoxy-8α-methylmorphinan-6-one]
- ED50 [1, 5]: 0.14 mg/kg
- ED50 [2, 7]: 3 mg/kg
